Results published in patent US20210330807A1, “NOVEL HYDROGEL CONJUGATES” (priority 2018, published 2021).

Test: Stability of daptomycin in a transient daptomycin-linker hydrogel conjugate versus free daptomycin
Format: physicochemical
Conditions: pH 7.4 and 37° C.; at day seven; UPLC peak area ratio at 215 nm
Description: The relative stability of the covalently bound daptomycin in a transient daptomycin-linker hydrogel conjugate towards hydrolytic and other degradation pathways in comparison to free daptomycin was investigated. […] The supernatant of the carrier sample was exchanged five times within a week and the daptomycin purity in these samples was analyzed by UPLC. In parallel, analytical samples of the free daptomycin control solution were also analyzed by UPLC at the same incubation times. The purity of daptomycin in the samples was calculated as the ratio of the peak area of the intact daptomycin peak at 215 nm relative to the area sum of all daptomycin-related peaks identified at 215 nm.

- purity of the free daptomycin in the solution control sample: 72%
SMILES: CCCCCCCCCC(=O)N[C@@H](Cc1c[nH]c2ccccc12)C(=O)N[C@H](CC(N)=O)C(=O)N[C@@H](CC(=O)O)C(=O)N[C@@H]1C(=O)NCC(=O)N[C@@H](CCCN)C(=O)N[C@@H](CC(=O)O)C(=O)N[C@H](C)C(=O)N[C@@H](CC(=O)O)C(=O)NCC(=O)N[C@H](CO)C(=O)N[C@@H]([C@H](C)CC(=O)O)C(=O)N[C@@H](CC(=O)c2ccccc2N)C(=O)O[C@@H]1C [daptomycin]
